# Source: ChEMBL document CHEMBL2375306, “Antimicrobial peptides containing unnatural amino acid exhibit potent bactericidal activity against ESKAPE pathogens” (Bioorg Med Chem, 2013)
# Numbered stars: 1 amine (or outer) side, 2 acyl side, 3 side chain; on linkers, the order of the positions; unused ones are H or OH. Square brackets hold non-standard residues; d marks the D form. Peptide text beside a SMILES is read from it. * marks the point of attachment. ξ: configuration not given here. X2 = NCCCC[C@H](NC(=O)[C@H](CCCCN)NC(=O)[C@H](CCCCN)NC(=O)[C@H](CCCCN)NCCCCCC(=O)[C@@H]1Cc2ccccc2CN1*)C(N)=O; Pro(3ξ,4ξ-(CH2)4) = O=C(O)[C@H]1NCC2CCCCC21; Pro(3,4-benzo) = O=C(O)[C@H]1NCc2ccccc21; Phe(4-F) = N[C@@H](Cc1ccc(F)cc1)C(=O)O; Ethylenediamine = C(CN[*:2])N[*:1]; Tic = O=C(O)[C@@H]1Cc2ccccc2CN1; X1 = CC(=O)NC(=O)[C@H](CN)N*; Dap = NC[C@H](N)C(=O)O; GABA = NCCCC(=O)O; βAla = NCCC(=O)O
# Experiments:
# Format in all cases: functional
# [1] = tested on: Enterococcus faecium; test: Antibacterial activity against Enterococcus faecium MMC4 after 24 hrs by broth microdilution method; conditions: MMC4, 24 h
# [2] = tested on: Klebsiella aerogenes; test: Antibacterial activity against Enterobacter aerogenes after 24 hrs by broth microdilution method
# [3] = tested on: Pseudomonas aeruginosa; test: Antibacterial activity against Pseudomonas aeruginosa PAO1 after 24 hrs by broth microdilution method; conditions: PAO1, 24 h
# [4] = tested on: Acinetobacter baumannii; test: Antibacterial activity against Acinetobacter baumannii WRAIR clinical isolate 13 after 24 hrs by broth microdilution method; conditions: WRAIR clinical isolate 13, 24 h
# [5] = tested on: Klebsiella pneumoniae; test: Antibacterial activity against Klebsiella pneumoniae BAMS clinical isolate 07-18 after 24 hrs by broth microdilution method; conditions: BAMS clinical isolate 07-18, 24 h
# [6] = tested on: Staphylococcus aureus; test: Antibacterial activity against methicillin-sensitive Staphylococcus aureus UAMS-1 after 24 hrs by broth microdilution method; conditions: UAMS-1, 24 h
SMILES,MBC [1] [µg/mL],MIC [1] [µg/mL],MBC [2] [µg/mL],MIC [2] [µg/mL],MBC [3] [µg/mL],MIC [3] [µg/mL],MBC [4] [µg/mL],MIC [4] [µg/mL],MBC [5] [µg/mL],MIC [5] [µg/mL],MBC [6] [µg/mL],MIC [6] [µg/mL]
"CC(=O)NCC(=O)N[C@@H](Cc1ccccc1)C(=O)N1Cc2ccccc2[C@H]1C(=O)N1CC2CCCCC2[C@H]1C(=O)NCC(=O)N[C@@H](CCCCN)C(=O)N1Cc2ccccc2[C@H]1C(=O)N1CC2CCCCC2[C@H]1C(=O)NCC(=O)N[C@@H](Cc1ccccc1)C(=O)N1Cc2ccccc2[C@H]1C(=O)N1CC2CCCCC2[C@H]1C(=O)NCC(=O)N[C@@H](CCCCN)C(=O)N1Cc2ccccc2C[C@H]1C(=O)N[C@@H](CCCCN)C(=O)N[C@@H](CCCCN)C(=O)N[C@@H](CCCCN)C(=O)N[C@@H](CCCCN)C(N)=O (some centres not stated) (Ac-GF[Pro(3,4-benzo)][Pro(3ξ,4ξ-(CH2)4)]GK[Pro(3,4-benzo)][Pro(3ξ,4ξ-(CH2)4)]GF[Pro(3,4-benzo)][Pro(3ξ,4ξ-(CH2)4)]GK[Tic]KKKK-NH2)",100,12.5,> 100,> 100,> 100,> 100,12.5,12.5,> 100,> 100,> 100,> 100
"CC(=O)NCC(=O)N[C@@H](Cc1ccccc1)C(=O)N1Cc2ccccc2C[C@H]1C(=O)N1CC2CCCCC2[C@H]1C(=O)NCC(=O)N[C@@H](CCCCN)C(=O)N1Cc2ccccc2C[C@H]1C(=O)N1CC2CCCCC2[C@H]1C(=O)NCC(=O)N[C@@H](Cc1ccccc1)C(=O)N1Cc2ccccc2C[C@H]1C(=O)N1CC2CCCCC2[C@H]1C(=O)NCC(=O)N[C@@H](CCCCN)C(=O)N1Cc2ccccc2C[C@H]1C(=O)N[C@@H](CCCCN)C(=O)N[C@@H](CCCCN)C(=O)N[C@@H](CCCCN)C(=O)N[C@@H](CCCCN)C(=O)NCCN (some centres not stated) (Ac-GF[Tic][Pro(3ξ,4ξ-(CH2)4)]GK[Tic][Pro(3ξ,4ξ-(CH2)4)]GF[Tic][Pro(3ξ,4ξ-(CH2)4)]GK[Tic]KKKK-Ethylenediamine)",25,12.5,50,50,100,50,6.25,6.25,50,25,> 100,50
"CC(=O)NCC(=O)N[C@@H](Cc1ccccc1)C(=O)N1Cc2ccccc2C[C@H]1C(=O)N1CC2CCCCC2[C@H]1C(=O)NCC(=O)N[C@@H](CCCCN)C(=O)N1Cc2ccccc2C[C@H]1C(=O)N1CC2CCCCC2[C@H]1C(=O)NCC(=O)N[C@@H](Cc1ccccc1)C(=O)N1Cc2ccccc2C[C@H]1C(=O)N1CC2CCCCC2[C@H]1C(=O)NCC(=O)N[C@@H](CCCCN)C(=O)N1Cc2ccccc2C[C@H]1C(=O)CCCCCN[C@@H](CCCCN)C(=O)N[C@@H](CCCCN)C(=O)N[C@@H](CCCCN)C(=O)N[C@@H](CCCCN)C(N)=O (some centres not stated) (Ac-GF[Tic][Pro(3ξ,4ξ-(CH2)4)]GK[Tic][Pro(3ξ,4ξ-(CH2)4)]GF[Tic][Pro(3ξ,4ξ-(CH2)4)]GK-X2)",> 100,25,> 100,100,> 100,100,25,12.5,100,100,> 100,100
"CC(=O)NCC(=O)N[C@@H](Cc1ccccc1)C(=O)N1Cc2ccccc2C[C@H]1C(=O)N1CC2CCCCC2[C@H]1C(=O)NCC(=O)N[C@@H](CCCCN)C(=O)N1Cc2ccccc2C[C@H]1C(=O)N1CC2CCCCC2[C@H]1C(=O)NCC(=O)N[C@@H](Cc1ccccc1)C(=O)N1Cc2ccccc2C[C@H]1C(=O)N1CC2CCCCC2[C@H]1C(=O)NCC(=O)N[C@@H](CCCCN)C(=O)N1Cc2ccccc2C[C@H]1C(=O)N[C@@H](CCCCN)C(=O)N[C@@H](CCCCN)C(=O)N[C@@H](CCCCN)C(N)=O (some centres not stated) (Ac-GF[Tic][Pro(3ξ,4ξ-(CH2)4)]GK[Tic][Pro(3ξ,4ξ-(CH2)4)]GF[Tic][Pro(3ξ,4ξ-(CH2)4)]GK[Tic]KKK-NH2)",100,25,> 100,> 100,> 100,> 100,50,12.5,> 100,100,> 100,100
"CC(=O)N[C@@H](CCCCN)C(=O)N[C@@H](CC(C)C)C(=O)N1Cc2ccccc2C[C@H]1C(=O)N1CC2CCCCC2[C@H]1C(=O)N[C@@H](CCCCN)C(=O)N1Cc2ccccc2C[C@H]1C(=O)N1CC2CCCCC2[C@H]1C(=O)N[C@@H](Cc1ccccc1)C(=O)N1Cc2ccccc2C[C@H]1C(=O)N1CC2CCCCC2[C@H]1C(=O)N[C@@H](CCCCN)C(=O)N1Cc2ccccc2C[C@H]1C(=O)N1CC2CCCCC2[C@H]1C(=O)N[C@@H](Cc1ccccc1)C(=O)N1Cc2ccccc2C[C@H]1C(=O)N1CC2CCCCC2[C@H]1C(=O)N[C@@H](CCCCN)C(=O)N1Cc2ccccc2C[C@H]1C(=O)N1CC2CCCCC2[C@H]1C(=O)N[C@@H](CCCCN)C(=O)N[C@@H](CCCCN)C(=O)N[C@@H](CCCCN)C(=O)N[C@@H](CCCCN)C(N)=O (some centres not stated) (Ac-KL[Tic][Pro(3ξ,4ξ-(CH2)4)]K[Tic][Pro(3ξ,4ξ-(CH2)4)]F[Tic][Pro(3ξ,4ξ-(CH2)4)]K[Tic][Pro(3ξ,4ξ-(CH2)4)]F[Tic][Pro(3ξ,4ξ-(CH2)4)]K[Tic][Pro(3ξ,4ξ-(CH2)4)]KKKK-NH2)",25,12.5,> 100,> 100,> 100,> 100,100,100,> 100,> 100,50,50
"CC(=O)N[C@@H](CCCCN)C(=O)N[C@@H](CCCCN)C(=O)N[C@@H](CCCCN)C(=O)N[C@@H](CCCCN)C(=O)NCC(=O)N[C@@H](Cc1ccccc1)C(=O)N1Cc2ccccc2C[C@H]1C(=O)N1CC2CCCCC2[C@H]1C(=O)NCC(=O)N[C@@H](CCCCN)C(=O)N1Cc2ccccc2C[C@H]1C(=O)N1CC2CCCCC2[C@H]1C(=O)NCC(=O)N[C@@H](Cc1ccccc1)C(=O)N1Cc2ccccc2C[C@H]1C(=O)N1CC2CCCCC2[C@H]1C(=O)NCC(=O)N[C@@H](CCCCN)C(=O)N1Cc2ccccc2C[C@H]1C(N)=O (some centres not stated) (Ac-KKKKGF[Tic][Pro(3ξ,4ξ-(CH2)4)]GK[Tic][Pro(3ξ,4ξ-(CH2)4)]GF[Tic][Pro(3ξ,4ξ-(CH2)4)]GK[Tic]-NH2)",> 100,25,> 100,> 100,> 100,> 100,25,12.5,100,100,> 100,> 100
"CC(C)C[C@H](NC(=O)[C@@H](N)CCCCN)C(=O)N1Cc2ccccc2C[C@H]1C(=O)N1CC2CCCCC2[C@H]1C(=O)N[C@@H](CCCCN)C(=O)NCC(=O)N1Cc2ccccc2C[C@H]1C(=O)N1CC2CCCCC2[C@H]1C(=O)N[C@@H](Cc1ccccc1)C(=O)N1Cc2ccccc2C[C@H]1C(=O)N1CC2CCCCC2[C@H]1C(=O)N[C@@H](CCCCN)C(=O)NCC(=O)N1Cc2ccccc2C[C@H]1C(=O)N1CC2CCCCC2[C@H]1C(=O)N[C@@H](Cc1ccccc1)C(=O)N1Cc2ccccc2C[C@H]1C(=O)N1CC2CCCCC2[C@H]1C(=O)N[C@@H](CCCCN)C(=O)NCC(=O)N1Cc2ccccc2C[C@H]1C(=O)N1CC2CCCCC2[C@H]1C(=O)N[C@@H](CCCCN)C(=O)N[C@@H](CCCCN)C(=O)N[C@@H](CCCCN)C(=O)N[C@@H](CCCCN)C(N)=O (some centres not stated) (H-KL[Tic][Pro(3ξ,4ξ-(CH2)4)]KG[Tic][Pro(3ξ,4ξ-(CH2)4)]F[Tic][Pro(3ξ,4ξ-(CH2)4)]KG[Tic][Pro(3ξ,4ξ-(CH2)4)]F[Tic][Pro(3ξ,4ξ-(CH2)4)]KG[Tic][Pro(3ξ,4ξ-(CH2)4)]KKKK-NH2)",6.25,6.25,> 100,> 100,50,50,12.5,12.5,100,50,50,50
"CC(=O)NCCC(=O)N[C@@H](Cc1ccc(F)cc1)C(=O)N1Cc2ccccc2C[C@H]1C(=O)N1CC2CCCCC2[C@H]1C(=O)NCCC(=O)N[C@@H](CCCCN)C(=O)N1Cc2ccccc2C[C@H]1C(=O)N1CC2CCCCC2[C@H]1C(=O)NCCC(=O)N[C@@H](Cc1ccc(F)cc1)C(=O)N1Cc2ccccc2C[C@H]1C(=O)N1CC2CCCCC2[C@H]1C(=O)NCCC(=O)N[C@@H](CCCCN)C(=O)N1Cc2ccccc2C[C@H]1C(=O)N[C@@H](CN)C(=O)N[C@@H](CN)C(=O)N[C@@H](CN)C(=O)N[C@@H](CN)C(=O)NC(C)=O (some centres not stated) (Ac-[βAla][Phe(4-F)][Tic][Pro(3ξ,4ξ-(CH2)4)][βAla]K[Tic][Pro(3ξ,4ξ-(CH2)4)][βAla][Phe(4-F)][Tic][Pro(3ξ,4ξ-(CH2)4)][βAla]K[Tic][Dap][Dap][Dap]-X1)",–,–,> 100,> 100,> 100,50,12.5,12.5,100,50,> 100,100
"CC(=O)NCCCC(=O)N[C@@H](Cc1ccccc1)C(=O)N1Cc2ccccc2C[C@H]1C(=O)N1CC2CCCCC2[C@H]1C(=O)NCCCC(=O)N[C@@H](CCCCN)C(=O)N1Cc2ccccc2C[C@H]1C(=O)N1CC2CCCCC2[C@H]1C(=O)NCCCC(=O)N[C@@H](Cc1ccccc1)C(=O)N1Cc2ccccc2C[C@H]1C(=O)N1CC2CCCCC2[C@H]1C(=O)NCCCC(=O)N[C@@H](CCCCN)C(=O)N1Cc2ccccc2C[C@H]1C(=O)N[C@@H](CCCCN)C(=O)N[C@@H](CCCCN)C(=O)N[C@@H](CCCCN)C(=O)N[C@@H](CCCCN)C(=O)N[C@@H](CCCCN)C(N)=O (some centres not stated) (Ac-[GABA]F[Tic][Pro(3ξ,4ξ-(CH2)4)][GABA]K[Tic][Pro(3ξ,4ξ-(CH2)4)][GABA]F[Tic][Pro(3ξ,4ξ-(CH2)4)][GABA]K[Tic]KKKKK-NH2)",–,–,> 100,> 100,> 100,> 100,–,–,> 100,> 100,> 100,> 100
